According to patent publication US12685735B2 (Foghorn Therapeutics Inc., priority 2020, dated 2026):

Experiments:
BRM = BRM (Homo sapiens, UniProt P51531); assay: ATPase catalytic activity assay of BRM (ADP-Glo); format: biochemical; conditions: for IC50: read-out: BRM IC50 (μM)*
In short: (§1)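 Once the enzyme reaction finished, residual ATP is removed with ADP-Glo Reagent over 40 minutes at room temperature. Kinase Detection Reagent then converts product ADP into ATP during a 60-minute room-temperature incubation, and the luciferase signal is read.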

BRG-1 = BRG-1 (Homo sapiens, UniProt P51532); assay: ATPase catalytic activity assay of BRG-1 (ADP-Glo); format: biochemical; conditions: ATPase catalytic activity, ADP-Glo; for IC50: read-out: BRG1 IC50 (μM)*; for Emax: read-out: BRG1 Max % Inhibition
In short: as §1

BRM, sequence (P51531 whole entry): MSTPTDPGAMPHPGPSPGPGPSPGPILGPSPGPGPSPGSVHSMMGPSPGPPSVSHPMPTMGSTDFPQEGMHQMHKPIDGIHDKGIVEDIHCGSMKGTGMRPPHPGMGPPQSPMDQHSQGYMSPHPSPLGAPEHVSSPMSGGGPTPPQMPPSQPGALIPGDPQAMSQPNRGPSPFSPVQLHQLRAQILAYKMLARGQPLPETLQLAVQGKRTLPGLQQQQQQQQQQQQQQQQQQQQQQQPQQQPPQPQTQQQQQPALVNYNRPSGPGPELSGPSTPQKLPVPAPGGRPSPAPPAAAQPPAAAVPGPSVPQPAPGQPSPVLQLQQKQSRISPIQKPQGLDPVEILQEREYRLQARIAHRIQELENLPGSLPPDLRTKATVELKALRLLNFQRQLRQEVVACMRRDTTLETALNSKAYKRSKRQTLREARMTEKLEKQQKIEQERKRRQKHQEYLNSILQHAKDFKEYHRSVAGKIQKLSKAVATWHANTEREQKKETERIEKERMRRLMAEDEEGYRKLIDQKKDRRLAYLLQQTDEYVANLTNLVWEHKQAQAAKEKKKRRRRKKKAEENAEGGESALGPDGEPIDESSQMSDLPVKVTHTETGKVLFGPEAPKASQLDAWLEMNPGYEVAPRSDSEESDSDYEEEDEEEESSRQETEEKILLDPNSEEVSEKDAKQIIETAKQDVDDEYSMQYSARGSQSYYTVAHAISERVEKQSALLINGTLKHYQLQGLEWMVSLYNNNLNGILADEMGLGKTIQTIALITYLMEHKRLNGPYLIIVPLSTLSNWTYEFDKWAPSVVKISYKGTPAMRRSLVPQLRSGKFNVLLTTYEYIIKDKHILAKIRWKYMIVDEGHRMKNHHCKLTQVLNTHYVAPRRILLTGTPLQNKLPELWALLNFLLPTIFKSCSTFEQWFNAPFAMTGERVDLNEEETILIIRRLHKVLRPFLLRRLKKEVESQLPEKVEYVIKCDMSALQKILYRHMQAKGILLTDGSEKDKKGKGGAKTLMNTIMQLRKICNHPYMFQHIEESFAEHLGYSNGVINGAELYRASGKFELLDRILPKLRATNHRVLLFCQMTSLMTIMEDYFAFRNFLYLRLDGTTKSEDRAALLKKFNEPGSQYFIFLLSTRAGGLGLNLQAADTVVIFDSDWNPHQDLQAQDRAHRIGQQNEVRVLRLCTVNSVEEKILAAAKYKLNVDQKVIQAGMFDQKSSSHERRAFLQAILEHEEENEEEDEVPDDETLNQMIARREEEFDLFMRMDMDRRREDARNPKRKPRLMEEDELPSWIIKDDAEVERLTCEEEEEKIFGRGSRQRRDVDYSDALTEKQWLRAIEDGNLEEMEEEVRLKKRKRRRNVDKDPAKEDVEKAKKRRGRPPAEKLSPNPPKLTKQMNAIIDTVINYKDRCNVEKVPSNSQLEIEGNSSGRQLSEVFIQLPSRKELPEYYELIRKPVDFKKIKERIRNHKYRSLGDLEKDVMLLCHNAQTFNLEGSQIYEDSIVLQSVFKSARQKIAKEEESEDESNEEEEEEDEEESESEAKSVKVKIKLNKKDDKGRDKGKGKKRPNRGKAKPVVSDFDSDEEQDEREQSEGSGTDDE
BRG-1, sequence (P51532 whole entry): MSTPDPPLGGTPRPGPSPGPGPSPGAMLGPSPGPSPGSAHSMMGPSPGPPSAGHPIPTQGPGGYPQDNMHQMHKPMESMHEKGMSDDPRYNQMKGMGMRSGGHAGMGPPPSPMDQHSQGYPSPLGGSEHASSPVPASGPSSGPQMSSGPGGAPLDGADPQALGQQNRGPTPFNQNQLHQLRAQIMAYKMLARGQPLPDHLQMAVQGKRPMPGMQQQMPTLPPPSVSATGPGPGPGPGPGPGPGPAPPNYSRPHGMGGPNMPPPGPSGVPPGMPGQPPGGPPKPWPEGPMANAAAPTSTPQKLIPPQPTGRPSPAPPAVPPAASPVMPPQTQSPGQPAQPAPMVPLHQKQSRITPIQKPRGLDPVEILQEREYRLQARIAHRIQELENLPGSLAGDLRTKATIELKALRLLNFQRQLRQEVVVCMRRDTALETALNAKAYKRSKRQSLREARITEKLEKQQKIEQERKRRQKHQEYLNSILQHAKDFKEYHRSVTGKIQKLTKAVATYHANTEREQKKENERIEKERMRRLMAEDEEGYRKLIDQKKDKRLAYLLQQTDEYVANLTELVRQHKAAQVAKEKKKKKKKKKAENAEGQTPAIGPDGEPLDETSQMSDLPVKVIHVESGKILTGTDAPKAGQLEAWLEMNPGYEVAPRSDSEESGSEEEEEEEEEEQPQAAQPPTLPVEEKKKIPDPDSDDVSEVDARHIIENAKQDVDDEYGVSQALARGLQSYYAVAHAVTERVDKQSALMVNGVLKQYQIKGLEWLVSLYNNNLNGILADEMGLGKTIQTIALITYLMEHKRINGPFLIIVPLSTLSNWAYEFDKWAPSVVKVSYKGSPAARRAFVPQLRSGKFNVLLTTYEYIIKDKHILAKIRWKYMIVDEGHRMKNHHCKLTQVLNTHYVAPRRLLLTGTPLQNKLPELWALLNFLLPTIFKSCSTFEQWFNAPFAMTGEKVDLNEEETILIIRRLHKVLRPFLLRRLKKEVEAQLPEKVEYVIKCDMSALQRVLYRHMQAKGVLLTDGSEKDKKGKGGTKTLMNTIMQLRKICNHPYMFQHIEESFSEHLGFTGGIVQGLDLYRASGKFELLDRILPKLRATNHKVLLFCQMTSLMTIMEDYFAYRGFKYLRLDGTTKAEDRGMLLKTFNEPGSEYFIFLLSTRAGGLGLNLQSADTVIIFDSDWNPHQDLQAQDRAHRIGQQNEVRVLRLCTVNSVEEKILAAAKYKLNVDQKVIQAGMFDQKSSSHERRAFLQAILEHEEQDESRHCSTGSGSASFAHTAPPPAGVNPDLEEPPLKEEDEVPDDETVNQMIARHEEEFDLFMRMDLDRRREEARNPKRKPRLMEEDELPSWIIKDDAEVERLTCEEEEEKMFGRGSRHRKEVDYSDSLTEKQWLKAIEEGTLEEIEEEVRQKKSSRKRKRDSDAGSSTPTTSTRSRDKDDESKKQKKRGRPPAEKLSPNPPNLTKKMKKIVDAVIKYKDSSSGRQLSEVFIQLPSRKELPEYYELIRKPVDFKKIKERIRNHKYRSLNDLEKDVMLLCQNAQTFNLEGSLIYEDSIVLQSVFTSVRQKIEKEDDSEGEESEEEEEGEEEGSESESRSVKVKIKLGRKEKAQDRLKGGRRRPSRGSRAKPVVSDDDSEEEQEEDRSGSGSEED

SMILES	BRM Max % Inhibition (BRM) [%]	IC50 (BRM) [µM]	IC50 (BRG-1) [µM]	Emax (BRG-1) [%]	BRG1 Max % Inhibition (BRG-1) [%]
CC1(CO)CCc2ccc(C(=O)NCC(=O)Nc3nc(-c4cccc(-c5ccncc5)c4)cs3)cc21 (stereo not shown) [Compound 102]	>95	< 0.1	0.1 to 1	> 80	
O=C(CNC(=O)c1ccc2c(c1)C1(CCNC1=O)CC2)Nc1nc(-c2cccc(-c3ccncc3)c2)cs1 (stereo not shown) [Compound 108]	>95	0.1 to 1	1 to 5	> 80	
CC(=O)NCc1cccc(-c2cccc(-c3csc(NC(=O)CNC(=O)c4cccc(S(=O)(=O)C(C)C)c4)n3)c2)c1 [Compound 111, N-(2-((4-(3′-(acetamidomethyl)-[1,1′-biphenyl]-3-yl)thiazol-2-yl)amino)-2-oxoethyl)-3-(isopropylsulfonyl) benzamide]	>90	0.1 to 1	> 5	> 40	
CC(C(F)(F)F)S(=O)(=O)c1cccc(C(=O)NCC(=O)Nc2nc(-c3cccc(-c4ccncc4)c3)cs2)c1 (stereo not shown) [Compound 112]	>80	0.1 to 1	0.1 to 1	> 50	
CC(C(F)(F)F)S(=O)(=O)c1cccc(C(=O)NCC(=O)Nc2nc(-c3cccc(-c4ccncc4)c3)cs2)c1 (stereo not shown) [Compound 113, N-(2-oxo-2-((4-(3-(pyridin-4-yl)phenyl)thiazol-2-yl)amino)ethyl)-3-((1,1,1-trifluoropropan-2-yl)sulfonyl)benzamide]	>80	0.1 to 1	0.1 to 1		>50
CC(C)S(=O)(=O)c1cccc(C(=O)NCC(=O)Nc2nc(-c3cccc(-c4cccc(C#N)n4)n3)cs2)c1 [Compound 118, N-[2-[[4-[6-(6-cyano-2-pyridyl)-2-pyridyl]thiazol-2-yl]amino]-2-oxo-ethyl]-3-isopropylsulfonyl-benzamide]	>70	0.1 to 1	> 5	< 30	
COc1nccc(-c2cccc(-c3csc(NC(=O)CNC(=O)c4cccc(S(=O)(=O)C(C)C)c4)n3)n2)n1 [Compound 119, 3-isopropylsulfonyl-N-[2-[[4-[6-(2-methoxypyrimidin-4-yl)-2-pyridyl]thiazol-2-yl]amino]-2-oxo-ethyl]benzamide]	>95	< 0.1	0.1 to 1	> 80	
Cc1nccc(-c2cccc(-c3csc(NC(=O)CNC(=O)c4cccc(S(=O)(=O)C(C)C)c4)n3)n2)n1 [Compound 121]	>95	0.1 to 1	1 to 5	> 80	
Cc1ccc(C(=O)NCC(=O)Nc2nc(-c3cccc(N4C[C@@H](C)O[C@@H](C)C4)c3)cs2)cc1S(=O)(=O)C(C)C [Compound 125, N-(2-((4-(3-((cis)-2,6-dimethylmorpholino)phenyl)thiazol-2-yl)amino)-2-oxoethyl)-3-(isopropylsulfonyl)-4-methylbenzamide]	>95	< 0.1	0.1 to 1	> 80	
CC(C)S(=O)(=O)c1cccc(C(=O)NCC(=O)Nc2nc(-c3cccc(N4CCOCC4)c3)cs2)c1 [Compound 126, 3-isopropylsulfonyl-N-[2-[[4-(3-morpholinophenyl)thiazol-2-yl]amino]-2-oxoethyl]benzamide]	>80	0.1 to 1	1 to 5	> 60	
C[C@@H]1CN(c2cccc(-c3csc(NC(=O)CNC(=O)c4ccc5c(c4)S(=O)(=O)CCCC5)n3)c2)C[C@H](C)O1 [Compound 128, N-(2-((4-(3-((cis)-2,6-dimethylmorpholino)phenyl)thiazol-2-yl)amino)-2-oxoethyl)-2,3,4,5-tetrahydrobenzo[b]thiepine-8-carboxamide 1,1-dioxide]	>95	< 0.1	< 0.1	> 95	
O=C(CNC(=O)c1ccc2c(c1)S(=O)(=O)CCCC2)Nc1nc(-c2cccc(-c3ccncc3)c2)cs1 [Compound 129, 1,1-dioxo-N-[2-oxo-2-[[4-[3-(4-pyridyl)phenyl]thiazol-2-yl]amino]ethyl]-2,3,4,5-tetrahydro-1benzothiepine-8-carboxamide]	>95	< 0.1	< 0.1	> 95	

The remaining lines, values ahead:

BRM Max % Inhibition (BRM) [%]	IC50 (BRM) [µM]	IC50 (BRG-1) [µM]	Emax (BRG-1) [%]	BRG1 Max % Inhibition (BRG-1) [%]	SMILES
>95	0.1 to 1	1 to 5	> 70		Cc1cc(-c2cccc(-c3csc(NC(=O)CNC(=O)c4cccc(C(C)(C)CN)c4)n3)c2)ncn1 [Compound 98]
>95	< 0.1	0.1 to 1	> 90		C[C@@H]1CN(c2cccc(-c3csc(NC(=O)CNC(=O)c4cccc(C(C)(C)CN)c4)n3)c2)C[C@H](C)O1 [Compound 99]
>95	< 0.1	< 0.1		>95	Cc1nccc(-c2cccc(-c3csc(NC(=O)CNC(=O)c4cccc(C(C)(C)CN)c4)n3)c2)n1 [Compound 100]
>90	0.1 to 1	1 to 5	> 70		CC1(CN)CCc2ccc(C(=O)NCC(=O)Nc3nc(-c4cccc(-c5ccncc5)c4)cs3)cc21 (stereo not shown) [Compound 101]
>90	0.1 to 1	1 to 5	> 70		Cn1cc(-c2cccc(-c3csc(NC(=O)CNC(=O)c4cccc(C(C)(C)CO)c4)n3)c2)cn1 [Compound 104]
>80	1 to 5	1 to 5	> 30		CC(C)(CO)c1cccc(C(=O)NCC(=O)Nc2nc(-c3cccc(C#N)c3)cs2)c1 [Compound 106]
>80	1 to 5	1 to 5	> 50		C[C@@H](N)C(C)(C)c1cccc(C(=O)NCC(=O)Nc2nc(-c3cccc(-c4ccncc4)c3)cs2)c1 [Compound 109]
>95	< 0.1	0.1 to 1	> 80		Cc1cc(-c2cccc(-c3csc(NC(=O)CNC(=O)c4ccc(C)c(S(=O)(=O)C(C)C)c4)n3)n2)ncn1 [Compound 110, 3-isopropylsulfonyl-4-methyl-N-[2-[[4-[6-(6-methylpyrimidin-4-yl)-2-pyridyl]thiazol-2-yl]amino]-2-oxo-ethyl]benzamide]
>90	< 0.1	0.1 to 1	> 95		Cc1cc(-c2cccc(-c3csc(NC(=O)CNC(=O)c4cccc(S(=O)(=O)C(C)CN)c4)n3)c2)cc(C)n1 (stereo not shown) [Compound 114, 3-((1-aminopropan-2-yl)sulfonyl)-N-(2-((4-(3-(2,6-dimethylpyridin-4-yl)phenyl)thiazol-2-yl)amino)-2-oxoethyl)benzamide]
>95	< 0.1	< 0.1	> 95		C[C@@H](CO)S(=O)(=O)c1cccc(C(=O)NCC(=O)Nc2nc(-c3cccc(-c4ccncc4)c3)cs2)c1 [Compound 115, (S)-3-((1-hydroxypropan-2-yl)sulfonyl)-N-(2-oxo-2-((4-(3-(pyridin-4-yl)phenyl)thiazol-2-yl)amino)ethyl)benzamide]
>80	0.1 to 1	1 to 5	> 40		C[C@H](CO)S(=O)(=O)c1cccc(C(=O)NCC(=O)Nc2nc(-c3cccc(-c4ccncc4)c3)cs2)c1 [Compound 116, (R)-3-((1-hydroxypropan-2-yl)sulfonyl)-N-(2-oxo-2-((4-(3-(pyridin-4-yl)phenyl)thiazol-2-yl)amino)ethyl)benzamide]
>95	< 0.1	0.1 to 1	> 80		Cc1cc(-c2cccc(-c3csc(NC(=O)CNC(=O)c4cccc(S(=O)(=O)C(C)C)c4)n3)n2)ncn1 [Compound 117, 3-isopropylsulfonyl-N-[2-[[4-[6-(6-methylpyrimidin-4-yl)-2-pyridyl]thiazol-2-yl]amino]-2-oxo-ethyl]benzamide]
>95	< 0.1	< 0.1	> 95		COc1nc(C)cc(-c2cccc(-c3csc(NC(=O)CNC(=O)c4cccc(S(=O)(=O)C(C)C)c4)n3)c2)n1 [Compound 122, 3-isopropylsulfonyl-N-[2-[[4-[3-(2-methoxy-6-methyl-pyrimidin-4-yl)phenyl]thiazol-2-yl]amino]-2-oxoethyl]benzamide]
>95	< 0.1	0.1 to 1	> 80		COc1cc(-c2cccc(-c3csc(NC(=O)CNC(=O)c4cccc(S(=O)(=O)C(C)C)c4)n3)c2)nc(C)n1 [Compound 123, 3-isopropylsulfonyl-N-[2-[[4-[3-(6-methoxy-2-methyl-pyrimidin-4-yl)phenyl]thiazol-2-yl]amino]-2-oxo-ethyl]benzamide]
>90	0.1 to 1	1 to 5	> 70		CC(C)S(=O)(=O)c1cccc(C(=O)NCC(=O)Nc2nc(-c3cccc(-c4ccnc(CN)c4)c3)cs2)c1 [Compound 124, N-[2-[[4-[3-[2-(aminomethyl)-4-pyridyl]phenyl]thiazol-2-yl]amino]-2-oxo-ethyl]-3-isopropylsulfonyl-benzamide]
>95	< 0.1	0.1 to 1	> 90		Cc1cc(-c2cccc(-c3csc(NC(=O)CNC(=O)c4cccc(S(=O)(=O)C(C)C)c4)n3)c2)ncn1 [Compound 127, 3-isopropylsulfonyl-N-[2-[[4-[3-(6-methylpyrimidin-4-yl)phenyl]thiazol-2-yl]amino]-2-oxoethyl] benzamide]
